{"source": "PubChem BioAssay AID1259407", "about": "(Chemical Carcinogenesis Research Information System (CCRIS), 2018)", "system": "CCRIS mutagenicity, Ames/micronucleus/aberration tests", "experiment": "CCRIS mutagenicity studies", "note": "Activity calls are given as the source filed them. The rule behind the calls is not given here.", "data": [{"smiles": "CCc1ccco1", "values": [{"measurement": "mutagenic call", "setting": "Test System: AMES SALMONELLA TYPHIMURIUM, Strain/Indicator: TA98, Metabolic Activation: HAMSTER, LIVER, S-9, AROCLOR 1254, Method: STANDARD PLATE", "value": "inactive; negative"}, {"measurement": "mutagenic call", "setting": "Test System: AMES SALMONELLA TYPHIMURIUM, Strain/Indicator: TA98, Metabolic Activation: NONE, Method: STANDARD PLATE", "value": "inactive; negative"}, {"measurement": "mutagenic call", "setting": "Test System: AMES SALMONELLA TYPHIMURIUM, Strain/Indicator: TA98, Metabolic Activation: RAT, LIVER, S-9, AROCLOR 1254, Method: STANDARD PLATE", "value": "inactive; negative"}, {"measurement": "mutagenic call", "setting": "Test System: AMES SALMONELLA TYPHIMURIUM, Strain/Indicator: TA100, Metabolic Activation: HAMSTER, LIVER, S-9, AROCLOR 1254, Method: STANDARD PLATE", "value": "inactive; negative"}, {"measurement": "mutagenic call", "setting": "Test System: AMES SALMONELLA TYPHIMURIUM, Strain/Indicator: TA100, Metabolic Activation: NONE, Method: STANDARD PLATE", "value": "inactive; negative"}, {"measurement": "mutagenic call", "setting": "Test System: AMES SALMONELLA TYPHIMURIUM, Strain/Indicator: TA100, Metabolic Activation: RAT, LIVER, S-9, AROCLOR 1254, Method: STANDARD PLATE", "value": "inactive; negative"}, {"measurement": "mutagenic call", "setting": "Test System: AMES SALMONELLA TYPHIMURIUM, Strain/Indicator: TA1535, Metabolic Activation: HAMSTER, LIVER, S-9, AROCLOR 1254, Method: STANDARD PLATE", "value": "inactive; negative"}, {"measurement": "mutagenic call", "setting": "Test System: AMES SALMONELLA TYPHIMURIUM, Strain/Indicator: TA1535, Metabolic Activation: NONE, Method: STANDARD PLATE", "value": "inactive; negative"}, {"measurement": "mutagenic call", "setting": "Test System: AMES SALMONELLA TYPHIMURIUM, Strain/Indicator: TA1535, Metabolic Activation: RAT, LIVER, S-9, AROCLOR 1254, Method: STANDARD PLATE", "value": "inactive; negative"}, {"measurement": "mutagenic call", "setting": "Test System: AMES SALMONELLA TYPHIMURIUM, Strain/Indicator: TA1537, Metabolic Activation: HAMSTER, LIVER, S-9, AROCLOR 1254, Method: STANDARD PLATE", "value": "inactive; negative"}, {"measurement": "mutagenic call", "setting": "Test System: AMES SALMONELLA TYPHIMURIUM, Strain/Indicator: TA1537, Metabolic Activation: NONE, Method: STANDARD PLATE", "value": "inactive; negative"}, {"measurement": "mutagenic call", "setting": "Test System: AMES SALMONELLA TYPHIMURIUM, Strain/Indicator: TA1537, Metabolic Activation: RAT, LIVER, S-9, AROCLOR 1254, Method: STANDARD PLATE", "value": "inactive; negative"}, {"measurement": "mutagenic call", "setting": "Test System: AMES SALMONELLA TYPHIMURIUM, Strain/Indicator: TA1538, Metabolic Activation: HAMSTER, LIVER, S-9, AROCLOR 1254, Method: STANDARD PLATE", "value": "inactive; negative"}, {"measurement": "mutagenic call", "setting": "Test System: AMES SALMONELLA TYPHIMURIUM, Strain/Indicator: TA1538, Metabolic Activation: NONE, Method: STANDARD PLATE", "value": "inactive; negative"}, {"measurement": "mutagenic call", "setting": "Test System: AMES SALMONELLA TYPHIMURIUM, Strain/Indicator: TA1538, Metabolic Activation: RAT, LIVER, S-9, AROCLOR 1254, Method: STANDARD PLATE", "value": "inactive; negative"}, {"measurement": "mutagenic call", "setting": "Test System: MOUSE LYMPHOMA, Strain/Indicator: L5178Y (TK+/TK-), Metabolic Activation: NONE, Method: SUSPENSION/PLATE", "value": "inactive; negative"}, {"measurement": "mutagenic call", "setting": "Test System: MOUSE LYMPHOMA, Strain/Indicator: L5178Y (TK+/TK-), Metabolic Activation: RAT, LIVER, S-9, AROCLOR 1254, Method: SUSPENSION/PLATE", "value": "active; positive"}, {"measurement": "mutagenic call", "setting": "Test System: Mouse lymphoma, Strain/Indicator: L5178Y (tk+/tk-), Metabolic Activation: Rat, Liver, S-9, Aroclor 1254, Method: Suspension/plate", "value": "active; equivocal (previous evaluation positive)"}]}, {"smiles": "OC[C@H](Cc1cccc(O)c1)[C@H](CO)Cc1cccc(O)c1", "values": [{"measurement": "mutagenic call", "setting": "Test System: CHINESE HAMSTER V79 CELLS, Strain/Indicator: V79 CELLS (HPRT)/6-THIOGUANINE, Metabolic Activation: NONE, Method: SUSPENSION/PLATE", "value": "inactive; negative"}, {"measurement": "mutagenic call", "setting": "Test System: CHINESE HAMSTER V-79, Strain/Indicator: V-79 (HPRT)/6-THIOGUANINE, Metabolic Activation: NONE", "value": "inactive; negative"}]}, {"smiles": "CCCCCC=O", "values": [{"measurement": "mutagenic call", "setting": "Test System: CHINESE HAMSTER V-79, Strain/Indicator: V-79/6-THIOGUANINE (HGPRT), Metabolic Activation: NONE, Method: REPLATING", "value": "active; positive"}, {"measurement": "mutagenic call", "setting": "Test System: CHINESE HAMSTER V-79, Strain/Indicator: V-79/OUABAIN (NA/K), Metabolic Activation: NONE, Method: REPLATING", "value": "active; positive"}, {"measurement": "mutagenic call", "setting": "Test System: UDS HUMAN HEPATOCYTES, Strain/Indicator: THY INCORP, Metabolic Activation: NONE, Method: AUTORADIOGRAPHY", "value": "inactive; negative"}, {"measurement": "mutagenic call", "setting": "Test System: UDS RAT HEPATOCYTES, Strain/Indicator: THY INCORP, Metabolic Activation: NONE, Method: AUTORADIOGRAPHY", "value": "active; positive"}]}, {"smiles": "CC(=O)O", "values": [{"measurement": "mutagenic call", "setting": "Test System: AMES SALMONELLA TYPHIMURIUM, Strain/Indicator: TA97, Metabolic Activation: HAMSTER, LIVER, S-9, AROCLOR 1254 (10%), Method: PREINCUBATION", "value": "inactive; negative"}, {"measurement": "mutagenic call", "setting": "Test System: AMES SALMONELLA TYPHIMURIUM, Strain/Indicator: TA97, Metabolic Activation: HAMSTER, LIVER, S-9, AROCLOR 1254 (30%), Method: PREINCUBATION", "value": "inactive; negative"}, {"measurement": "mutagenic call", "setting": "Test System: AMES SALMONELLA TYPHIMURIUM, Strain/Indicator: TA97, Metabolic Activation: NONE, Method: PREINCUBATION", "value": "inactive; negative"}, {"measurement": "mutagenic call", "setting": "Test System: AMES SALMONELLA TYPHIMURIUM, Strain/Indicator: TA97, Metabolic Activation: RAT, LIVER, S-9, AROCLOR 1254 (10%), Method: PREINCUBATION", "value": "inactive; negative"}, {"measurement": "mutagenic call", "setting": "Test System: AMES SALMONELLA TYPHIMURIUM, Strain/Indicator: TA97, Metabolic Activation: RAT, LIVER, S-9, AROCLOR 1254 (30%), Method: PREINCUBATION", "value": "inactive; negative"}, {"measurement": "mutagenic call", "setting": "Test System: AMES SALMONELLA TYPHIMURIUM, Strain/Indicator: TA97, Metabolic Activation: RAT, LIVER, S-9, AROCLOR 1254, Method: PREINCUBATION", "value": "inactive; negative"}, {"measurement": "mutagenic call", "setting": "Test System: AMES SALMONELLA TYPHIMURIUM, Strain/Indicator: TA98, Metabolic Activation: HAMSTER, LIVER, S-9, AROCLOR 1254 (10%), Method: PREINCUBATION", "value": "inactive; negative"}, {"measurement": "mutagenic call", "setting": "Test System: AMES SALMONELLA TYPHIMURIUM, Strain/Indicator: TA98, Metabolic Activation: HAMSTER, LIVER, S-9, AROCLOR 1254 (30%), Method: PREINCUBATION", "value": "inactive; negative"}, {"measurement": "mutagenic call", "setting": "Test System: AMES SALMONELLA TYPHIMURIUM, Strain/Indicator: TA98, Metabolic Activation: NONE, Method: PREINCUBATION", "value": "inactive; negative"}, {"measurement": "mutagenic call", "setting": "Test System: AMES SALMONELLA TYPHIMURIUM, Strain/Indicator: TA98, Metabolic Activation: RAT, LIVER, S-9, AROCLOR 1254 (10%), Method: PREINCUBATION", "value": "inactive; negative"}, {"measurement": "mutagenic call", "setting": "Test System: AMES SALMONELLA TYPHIMURIUM, Strain/Indicator: TA98, Metabolic Activation: RAT, LIVER, S-9, AROCLOR 1254 (30%), Method: PREINCUBATION", "value": "inactive; negative"}, {"measurement": "mutagenic call", "setting": "Test System: AMES SALMONELLA TYPHIMURIUM, Strain/Indicator: TA100, Metabolic Activation: HAMSTER, LIVER, S-9, AROCLOR 1254 (10%), Method: PREINCUBATION", "value": "inactive; negative"}, {"measurement": "mutagenic call", "setting": "Test System: AMES SALMONELLA TYPHIMURIUM, Strain/Indicator: TA100, Metabolic Activation: HAMSTER, LIVER, S-9, AROCLOR 1254 (30%), Method: PREINCUBATION", "value": "inactive; negative"}, {"measurement": "mutagenic call", "setting": "Test System: AMES SALMONELLA TYPHIMURIUM, Strain/Indicator: TA100, Metabolic Activation: NONE, Method: PREINCUBATION", "value": "inactive; negative"}, {"measurement": "mutagenic call", "setting": "Test System: AMES SALMONELLA TYPHIMURIUM, Strain/Indicator: TA100, Metabolic Activation: RAT, LIVER, S-9, AROCLOR 1254 (10%), Method: PREINCUBATION", "value": "inactive; negative"}, {"measurement": "mutagenic call", "setting": "Test System: AMES SALMONELLA TYPHIMURIUM, Strain/Indicator: TA100, Metabolic Activation: RAT, LIVER, S-9, AROCLOR 1254 (30%), Method: PREINCUBATION", "value": "inactive; negative"}, {"measurement": "mutagenic call", "setting": "Test System: AMES SALMONELLA TYPHIMURIUM, Strain/Indicator: TA102, Metabolic Activation: NONE, Method: PREINCUBATION", "value": "inactive; negative"}, {"measurement": "mutagenic call", "setting": "Test System: AMES SALMONELLA TYPHIMURIUM, Strain/Indicator: TA102, Metabolic Activation: RAT, LIVER, S-9, AROCLOR 1254, Method: PREINCUBATION", "value": "inactive; negative"}, {"measurement": "mutagenic call", "setting": "Test System: AMES SALMONELLA TYPHIMURIUM, Strain/Indicator: TA1535, Metabolic Activation: HAMSTER, LIVER, S-9, AROCLOR 1254 (10%), Method: PREINCUBATION", "value": "inactive; negative"}, {"measurement": "mutagenic call", "setting": "Test System: AMES SALMONELLA TYPHIMURIUM, Strain/Indicator: TA1535, Metabolic Activation: HAMSTER, LIVER, S-9, AROCLOR 1254 (30%), Method: PREINCUBATION", "value": "inactive; negative"}, {"measurement": "mutagenic call", "setting": "Test System: AMES SALMONELLA TYPHIMURIUM, Strain/Indicator: TA1535, Metabolic Activation: NONE, Method: PREINCUBATION", "value": "inactive; negative"}, {"measurement": "mutagenic call", "setting": "Test System: AMES SALMONELLA TYPHIMURIUM, Strain/Indicator: TA1535, Metabolic Activation: RAT, LIVER, S-9, AROCLOR 1254 (10%), Method: PREINCUBATION", "value": "inactive; negative"}, {"measurement": "mutagenic call", "setting": "Test System: AMES SALMONELLA TYPHIMURIUM, Strain/Indicator: TA1535, Metabolic Activation: RAT, LIVER, S-9, AROCLOR 1254 (30%), Method: PREINCUBATION", "value": "inactive; negative"}]}]}
